Reference: US5560912A, “Method for inhibiting growth of helicobacter pylori” (Technion Research & Development Foundation Ltd., priority 1994, dated 1996)

What was measured:
Helicobacter pylori [1] = assay: Filter paper disc diffusion method, zone of inhibition; format: cell-based; settings: read-out: Inhibition zone
Helicobacter pylori [2] = assay: as above; format: cell-based
Method: The inhibition effect was determined in-vitro, using the "Filter paper disc diffusion method" as described by Laura L. Zaika, (journal of Food Safety 9,1988,p.97-118). According to the method used, an extract of the plant was deposited on a small filter paper disc having a diameter of 0.5 cm and then placed in the center of a Petri plate containing agar growth medium inoculated with the test microorganism. The plate was incubated under microaerophilic conditions in anaerobic jars at 37° C. for 3 to 4 days and observed for microbial growth. If the extract of Cinnamon exerts antimicrobial activity, the microorganism will not grow in an area surrounding the filter paper disc. This clear area, defined as "zone of inhibition" was measured and recorded in mm. This method is well-known also for determining the activity of an antibiotic compound, by measuring the zone of inhibition arround a disc containing a sample of the antibacterial compound to be tested.
The assays used for the bacterial growth inhibition were as follows:
Two organic Cinnamon extracts, methylene chloride and ethanol in concentrations of 0.05 mg and 0.1 mg respectively were spotted on standard discs and placed on Egg Yolk Emulsion agar plate center which was previously layered with 0,1 ml of a bacterial suspension having a concentration of 10^7 CFU ml.
After the required incubation, the inhibition zone was recorded. In FIG. 2,there are presented the sensitivity of Helicobacter pylori, as determined by the inhibition diameter, using two organic extracts of Cinnamon (0,05 mg and 0.1 mg dry weight) compared with antibiotics: ampicillin (0.0. mg), tetracycline (0.03 mg), erythromycine (0.015 mg) nalidixic acid (0.03 mg), cotrimoxazole (0.025 mg). In these tests, two isolates of H.pylori were used.
The tests were carried out on Egg Yolk Emulsion agar plate, the Cinnamon concentrations on disk were in the range of […].

[3] = Helicobacter pylori, read-out: Inhibition zone

For `CC1=CCC(O)(C(C)C)CC1` (stereo not shown) [Terpinen-4-ol], the zone of inhibition at 2000 µg/disc (Helicobacter pylori [1]) was 22 mm.
In the case of `OC/C=C/c1ccccc1` [Cinnamic alcohol], the “inhibition of H. pylori growth, in words” value (Helicobacter pylori [2]) is reported as “only a lower inhibition zone”, the zone of inhibition at 200 µg/disc (Helicobacter pylori [2]; [3]) is reported as 12 mm and the zone of inhibition at 400 µg/disc (Helicobacter pylori [2]; Helicobacter pylori, 0.4 mg/disk) is reported as 20 mm.
In the case of `CC1=CC=C(C(C)C)CC1` [Alpha-terpinene], the “inhibition of H. pylori growth, in words” value (Helicobacter pylori [2]) is reported as “only a lower inhibition zone” and the zone of inhibition at 2000 µg/disc (Helicobacter pylori [1]) is reported as 17 mm.
For `O=CC=Cc1ccccc1` [Cinnamaldehyde], the “inhibition of H. pylori growth, in words” value (Helicobacter pylori [2]) was “substantial complete inhibition”, the zone of inhibition at 50 µg/disc (Helicobacter pylori [2]; [3]) was 45 mm and the zone of inhibition at 100 µg/disc (Helicobacter pylori [2]; [3]) was 60 mm. For the same compound, the zone of inhibition at 200 µg/disc (Helicobacter pylori [2]; [3]) was greater than 90 mm.
For `COc1ccccc1/C=C/C=O`, the “inhibition of H. pylori growth, in words” value (Helicobacter pylori [2]) was “beneficial effect on the inhibition but with a higher concentration”, the Inhibition zone (Helicobacter pylori [2]; 0.2 mg/disk, * = substantial complete inhibition) was 44 mm and the Inhibition zone (Helicobacter pylori [2]; 0.4 mg/disk) was 57 mm. For the same compound, the Inhibition zone (Helicobacter pylori [2]; 0.6 mg/disk) was 68 mm.
For `CC1=CCC2CC1C2(C)C` (stereo not drawn) [Alpha-pinene], the zone of inhibition at 2000 µg/disc (Helicobacter pylori [1]) was 18 mm.
`O=C(OCc1ccccc1)c1ccccc1` [Benzyl-benzoate] showed a zone of inhibition at 2000 µg/disc (Helicobacter pylori [1]) of 17 mm.
